Patent US20090042835A1, “COMPOSITIONS AND METHODS FOR AMELIORATING HYPERLIPIDEMIA” (priority 2006, published 2009)

Tests used:
L-FABP [1] = molecular target: T1, L-FABP (Homo sapiens, UniProt P07148); experiment: 1,8-ANS binding to FABP (direct binding isotherms)
T1 sequence (P07148 1-127): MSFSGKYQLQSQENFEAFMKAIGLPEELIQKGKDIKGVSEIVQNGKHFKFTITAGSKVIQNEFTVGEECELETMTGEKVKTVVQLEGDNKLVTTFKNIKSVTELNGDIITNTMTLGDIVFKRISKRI
From the text: The pharmaceutical compound may be formulated using any small molecule that is capable of inhibiting L-FABP and which is pharmaceutically acceptable. One non-limiting example of a suitable L-FABP inhibitor is 3-(decyldimethylsilyl)-N-[2-(4-methylphenyl)-1-phenylethyl]propanamide (Sandoz compound 58-035) (lot #fr. 09061988), In some embodiments, such L-FABP inhibitors are identified using a screening assay. […] Suitable in vitro assays for testing L-FABP include, but are not limited to a high throughput L-FABP assay based on the 1,8-ANS binding assay (see: Kane, C. D., and Bernlohr, D. A. 1996, A simple assay for intracellular lipid-binding proteins using displacement of 1-anilinonaphthalene 8-sulfonic acid. Anal Biochem 233:197-204.) In this assay, recombinant L-FABP is incubated with a fluorescent surrogate ligand, 1-anilinonapthalene 8-sulfonic acid (ANS) and allowed to come to equilibrium. 1,8-ANS is non-fluorescent in solution but is highly fluorescent when bound in the hydrophobic, lipid-binding pocket of the fatty acid binding proteins. […] Chemical compounds in pools of 5 were added to each well and the fluorescence re-measured. […] In tertiary screens, the primary targets will be titrated into the FABP bound with 1,8-ANS and the displacement quantitated as a function of ligand concentration.

control mice = experiment: PPARα agonist GW-7647 feeding, hepatic mRNA, control mice; format: in vivo; details: 2.5 mg/kg/d in chow, 7 weeks
Protocol: (§1) Animal Studies. Male PPARα−/− mice and age matched WT littermates (on SV/129 background) were fed a standard chow diet, supplemented with either the PPARα agonist GW-7647 (2.5 mg/kg/d) or equivalent amount of solvent vehicle (DMSO), for 7 weeks. All animals had ad libitum access to water. Mice were weighed every 2 weeks and drug intake was adjusted according to mean weight. Upon end of treatment animals were sacrificed, liver was isolated, and total RNA was extracted using Versagene RNA Tissue Kit (Gentra Systems, Inc.). First-Strand cDNA synthesis and Real Time PCR expression analyses were performed as described above.

PPARα−/− mice = experiment: PPARα agonist GW-7647 feeding, hepatic mRNA, PPARα−/− mice; format: in vivo; details: 2.5 mg/kg/d in chow, 7 weeks
Protocol: as §1

L-FABP [2] = molecular target: T1, L-FABP; details: cited from earlier work
PPARα = molecular target: T2, PPARα (rat, UniProt P37230 1-468); experiment: inferred from EMSA supershift of the same FAO-specific DNA-protein complex with anti-RXRα and anti-PPARα antibodies
T2 construct: Nuclear receptor; It was present in a crude nuclear extract, not purified; also called PPAR alpha
T2 sequence (looked up): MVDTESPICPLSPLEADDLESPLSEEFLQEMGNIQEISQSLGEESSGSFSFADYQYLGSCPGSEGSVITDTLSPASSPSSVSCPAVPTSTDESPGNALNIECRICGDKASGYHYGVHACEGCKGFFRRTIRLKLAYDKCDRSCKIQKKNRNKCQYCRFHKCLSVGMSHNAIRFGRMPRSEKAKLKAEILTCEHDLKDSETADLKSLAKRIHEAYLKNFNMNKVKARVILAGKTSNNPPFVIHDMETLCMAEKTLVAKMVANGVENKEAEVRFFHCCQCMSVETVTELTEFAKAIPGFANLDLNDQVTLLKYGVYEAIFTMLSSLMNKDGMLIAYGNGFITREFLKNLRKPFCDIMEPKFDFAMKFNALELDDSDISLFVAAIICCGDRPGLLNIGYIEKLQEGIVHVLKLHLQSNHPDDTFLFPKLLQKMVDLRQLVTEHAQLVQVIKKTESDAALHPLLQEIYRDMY
Protocol: The probes were prepared by annealing the complementary oligonucleotides and by end labeling with [γ-³²P]ATP ([…]), PerkinElmer Life Sciences) using T4 polynucleotide kinase (New England Biolabs), followed by purification on a G50 column. For binding reactions, 15 μg of nuclear extracts were incubated with 3×10^4 cpm probe on ice for 20 min in a total volume of 15 μl of solution (20 mM HEPES, pH7.9 at 4° C., 10% glycerol, 100 mM KCl, 1 mM EDTA, and 2 μg poly(dI-dC). For supershift experiments, 1 μl of specific antibodies were added to preincubated DNA-protein complexes for an additional 20 min on ice. Antibodies against COUP-TFII (sc-6576X), RXRα (sc-553X), and PPARα (sc-9000X) were obtained from Santa Cruz Biotechnology, Inc. DNA-protein complexes were resolved on 4% native polyacrylamide gel electrophoresis containing 0.5×TBE buffer.
PPARα-RXRα heterodimers compete with COUP-TFII for binding to the DR1 promoter elements of both the MTP and L-FABP genes. […] In contrast, PPARα-RXRα supershifts were not detected with the nuclear extracts obtained from L35 cells ((4)). These Findings indicate that in FAO cells, the DR1 sites of both the L-FABP and MTP promoters are occupied by PPARα-RXRα heterodimers while these same sites are occupied by a COUP-TFII complex in L35 cells.

O=S(=O)(O)c1cccc2cccc(Nc3ccccc3)c12 [1,8-ANS, 1-anilinonapthalene 8-sulfonic acid]
Kd (L-FABP [1]): 1500 nM

CC(C)(Sc1ccc(CCN(CCCCC2CCCCC2)C(=O)NC2CCCCC2)cc1)C(=O)O [GW-7647]
hepatic L-FABP mRNA level (control mice): increased levels | hepatic MTP mRNA level (control mice): increased levels | hepatic L-FABP expression level (PPARα−/− mice): no significant changes | hepatic MTP expression level (PPARα−/− mice): no significant changes

CCCCCCCCCC[Si](C)(C)CCC(=O)NC(Cc1ccc(C)cc1)c1ccccc1 (stereo not shown) [Sandoz compound 58-035, 3-(decyldimethylsilyl)-N-[2-(4-methylphenyl)-1-phenylethyl]propanamide]
inhibition of L-FABP (L-FABP [2]): inhibit L-FABP

B1: RXRα (receptor, rat, UniProt Q05343 1-467, looked up)
chain: MDTKHFLPLDFSTQVNSSSLSSPTGRGSMAAPSLHPSLGPGLGSPLGSPGQLHSPISTLSSPINGMGPPFSVISSPMGPHSMSVPTTPTLGFETGSPQLNSPMNPVSSSEDIKPPLGLNGVLKVPAHPSGNMSSFTKHICAICGDRSSGKHYGVYSCEGCKGFFKRTVRKDLTYTCRDNKDCLIDKRQRNRCQYCRYQKCLAMGMKREAVQEERQRGKDRNENEVESTSSANEDMPVEKILEAELAVEPKTETYVEANMGLNPSSPNDPVTNICQAADKQLFTLVEWAKRIPHFSELPLDDQVILLRAGWNELLIASFSHRSIAVKDGILLATGLHVHRNSAHSAGVGAIFDRVLTELVSKMRDMQMDKTELGCLRAIVLFNPDSKGLSNPAEVEALREKVYASLEAYCKHKYPEQPGRFAKLLLRLPALRSIGLKCLEHLFFFKLIGDTPIDTFLMEMLEAPHQTT
notes: Nuclear receptor; It was present in a crude nuclear extract, not purified; also called RXR alpha
binding result (PPARα): binds
